Values of other authors as cited in patent publication US20090155355A1, “Particles in a capsule” (Multi Formulations Ltd., priority 2007, published 2009).
Entries after “also recorded” stand apart in the source; their conditions may differ.

Experiments:
[1] = in vivo
[2] = combination with acetaminophen or ibuprofen
[3] = oral, single 400 mg dose, humans

Q: For `CC(=O)Nc1ccc(O)cc1` [Acetaminophen], which plasma half-life [1] is on record?
A: Its plasma half-life is “about 2 hrs”.

Q: What about the “time of peak plasma levels” value [1] of the same molecule?
A: The value was 0.5 to 2 h.

Q: For `Cn1c(=O)c2c(ncn2C)n(C)c1=O` [caffeine, Caffeine], which effect on analgesics [2] is on record?
A: Its effect on analgesics is “enhance and prolong the effects of acetaminophen; also recorded: enhance the analgesic effects of ibuprofen”.

Q: What about the “half-life (mean time)” value (highly variable) of the same molecule?
A: The value was “about 5 hrs”.

Q: And the “time to peak levels” value (in vivo)?
A: Its value is “about 1 hr”.

Q: For `CC(C)Cc1ccc(C(C)C(=O)O)cc1` (stereo not drawn) [ibuprofen, Ibuprofen], which “time to maximum plasma concentration” value [3] is on record?
A: Its value is “about 1.3 hrs”.
